Common to all, as to assay type: cell-based
The target in assay [1] is T1, Eukaryotic peptide chain release factor GTP-binding subunit ERF3A (Homo sapiens, UniProt P15170). The assay is described as follows: Induction of ePL tagged GSPT1 degradation in human DF15 cells assessed as remaining protein level incubated for 60 mins by luminescence reader assay relative to control.
The target of assay [2] is Zinc finger protein Aiolos (Homo sapiens) (UniProt Q9UKT9). The assay is described as follows: Induction of N-terminal HiBiT tag knocked in IKZF3 degradation in human DF15 cells assessed as remaining protein level incubated for 60 mins by Nano-Glo HiBiT lytic reagent based assay relative to control.
Zinc finger protein Aiolos (Homo sapiens), sequence (Q9UKT9 whole entry): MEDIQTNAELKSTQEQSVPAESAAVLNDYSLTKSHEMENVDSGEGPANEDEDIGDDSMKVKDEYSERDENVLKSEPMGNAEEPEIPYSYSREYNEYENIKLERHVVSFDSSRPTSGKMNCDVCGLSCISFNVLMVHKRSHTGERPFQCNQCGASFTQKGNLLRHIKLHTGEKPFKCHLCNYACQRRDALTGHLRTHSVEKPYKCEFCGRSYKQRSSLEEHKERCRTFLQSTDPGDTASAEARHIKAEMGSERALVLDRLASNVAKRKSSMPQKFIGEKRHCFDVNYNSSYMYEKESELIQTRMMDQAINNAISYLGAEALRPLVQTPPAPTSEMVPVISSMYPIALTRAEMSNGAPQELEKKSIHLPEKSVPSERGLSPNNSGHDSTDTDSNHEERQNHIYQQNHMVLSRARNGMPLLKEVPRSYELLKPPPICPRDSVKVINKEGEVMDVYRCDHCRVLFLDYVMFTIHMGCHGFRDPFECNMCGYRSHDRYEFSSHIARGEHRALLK
Assay [3] has as its target T1, Eukaryotic peptide chain release factor GTP-binding subunit ERF3A. The assay is described as follows: Induction of ePL tagged GSPT1 degradation in human DF15 cells incubated for 60 mins by luminescence reader assay. To be noted: read-out: EC50 (the source's name).
For assay [4], the target named is Casein kinase I isoform alpha (Homo sapiens) (UniProt P48729). As to the kind of experiment: Induction of ePL tagged CK1alpha degradation in human MDS-L cells assessed as remaining protein level incubated for 60 mins by luminescence reader assay relative to control.
Casein kinase I isoform alpha (Homo sapiens), sequence (P48729 2-337 limits assumed): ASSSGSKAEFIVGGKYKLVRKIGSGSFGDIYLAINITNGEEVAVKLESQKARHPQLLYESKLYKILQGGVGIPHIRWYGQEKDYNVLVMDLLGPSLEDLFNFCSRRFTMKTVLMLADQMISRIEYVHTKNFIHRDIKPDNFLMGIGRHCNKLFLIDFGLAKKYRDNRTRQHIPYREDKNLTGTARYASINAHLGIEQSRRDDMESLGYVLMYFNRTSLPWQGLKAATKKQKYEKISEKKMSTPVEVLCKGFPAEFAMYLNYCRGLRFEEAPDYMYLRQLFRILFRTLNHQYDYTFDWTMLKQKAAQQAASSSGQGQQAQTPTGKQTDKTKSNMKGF

Molecules are shown by their SMILES.

T1 sequence (P15170 whole entry): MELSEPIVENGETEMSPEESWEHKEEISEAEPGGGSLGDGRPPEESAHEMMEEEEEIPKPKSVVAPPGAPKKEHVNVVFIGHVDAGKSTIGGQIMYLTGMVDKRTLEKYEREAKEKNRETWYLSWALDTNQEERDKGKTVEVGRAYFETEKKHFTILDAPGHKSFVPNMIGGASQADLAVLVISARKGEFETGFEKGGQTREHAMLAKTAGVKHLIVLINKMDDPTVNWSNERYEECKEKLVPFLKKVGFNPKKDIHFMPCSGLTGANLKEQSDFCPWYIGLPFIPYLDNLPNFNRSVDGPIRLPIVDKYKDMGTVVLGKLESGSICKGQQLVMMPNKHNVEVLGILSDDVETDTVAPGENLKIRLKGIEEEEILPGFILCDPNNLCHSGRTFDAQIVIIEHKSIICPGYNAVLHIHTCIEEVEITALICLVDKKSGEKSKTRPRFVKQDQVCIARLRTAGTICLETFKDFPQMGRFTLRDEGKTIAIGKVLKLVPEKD

On to `O=C1CCC(N2C(=O)c3ccc([C@@H]4C[C@]4(C(=O)OCC(Cl)(Cl)Cl)c4ccc(Br)cc4)cc3C2=O)C(=O)N1` (some centres undefined), for which, in assay [1], the Activity stood at 100%.
As for `O=C1CCC(N2Cc3c(cccc3C3=C[C@]3(C(=O)OCC(Cl)(Cl)Cl)c3ccc(Br)cc3)C2=O)C(=O)N1` (some centres undefined), the Activity in assay [2] worked out at 9.2%.
Same read-out and setting: the value for `O=C1CCC(N2C(=O)c3cccc([C@H]4C[C@@]4(C(=O)OCC(Cl)(Cl)Cl)c4ccc(Br)cc4)c3C2=O)C(=O)N1` (some centres undefined) was 99%.
On the same count and under the same terms, the value for `O=C1CCC(N2Cc3c(cccc3[C@@H]3C[C@]3(C(=O)OCC(Cl)(Cl)Cl)c3ccc(Br)cc3)C2=O)C(=O)N1` (some centres undefined) was 79%.
On to `O=C1CCC(N2C(=O)c3ccc(C4=C[C@@]4(C(=O)OCC(Cl)(Cl)Cl)c4ccc(Br)cc4)cc3C2=O)C(=O)N1` (some centres undefined), for which the Activity in assay [1] was determined as 1.4%. Further, in assay [3], the DC50 was 1.4 µM.
Consider `O=C1CCC(N2Cc3cc([C@@H]4C[C@]4(C(=O)OCC(Cl)(Cl)Cl)c4ccc(Br)cc4)ccc3C2=O)C(=O)N1` (some centres undefined), for which, in assay [4], the Activity stood at 92%.
On the same count and under the same terms, in the case of `O=C1CCC(N2Cc3cc([C@H]4C[C@@]4(C(=O)OCC(Cl)(Cl)Cl)c4ccc(Br)cc4)ccc3C2=O)C(=O)N1` (some centres undefined) it was 44%.
Consider `O=C1CCC(N2C(=O)c3ccc(C4=C[C@]4(C(=O)OCC(Cl)(Cl)Cl)c4ccc(Br)cc4)cc3C2=O)C(=O)N1` (some centres undefined), for which, in assay [1], the Activity was 2.3%.

Values taken from ChEMBL document CHEMBL5614445, “Asymmetric Dirhodium-Catalyzed Modification of Immunomodulatory Imide Drugs and Their Biological Assessment” (ACS Med Chem Lett, 2024).
